# Molecular target: T1, RfaE (Escherichia coli, UniProt P76658)
# T1 construct: made in house; host or cells: E.coli
# Test: RfaE luminescent assay (inhibition of the enzymatic activity of RfaE)
# Format: biochemical, E.coli
# Conditions: luminescent ATP detection; 3 nM RfaE, 0.2 µM β-heptose-7-phosphate, 0.2 µM ATP; 30 min pre-incubation
# Description: RfaE is a kinase sharing similarities with the ribokinases family. It catalyses an essential step of the biosynthesis of L-ADP-Heptose, namely the phosphorylation of β-heptose-7-phosphate (H7P) into β-heptose-1,7-bisphosphate (H1,7P). RfaE assays as described in the literature are essentially based on direct HLPC detection of the substrates H7P and ATP, and of the products H1,7P and ADP, raising obvious limitations for HTS applications. The assays described below are based either on luminescent ATP detection, or on fluorescent ADP detection. They are easily amenable to miniaturized formats and fast readouts as required by HTS.
# The assay buffer "AB" contains 50 mM Hepes pH=7.5, 1 mM MnCl2, 25 mM KCI, 0.012% Triton-X100 and 1 mM DTT (Dithiothreitol). The following components are added in a white polystyrene Costar plate up to a final volume of 31 µL: 3 µL DMSO, or inhibitor dissolved in DMSO and 28 µL RfaE in AB. After 30min of pre-incubation at room temperature, 29 µL of Substrates mix in AB are added in each well to a final volume of 60 µL. This reaction mixture is then composed of 3 nM RfaE (produced in house from E.coli), 0.2 µM β -heptose-7-phosphate (in house synthesis) and 0.2 µM ATP (Sigma) in assay buffer. After 40min of incubation at room temperature, 200 µL of the revelation mix are added to a final volume of 260 µL, including the following constituents at the respective final concentrations: 2 nM luciferase (Sigma), 30 µM D-luciferin (Sigma), 100 µM N-acetylcysteamine (Aldrich). Luminescence intensity is immediately measured on an Analyst-HT (Molecular Devices) and converted into inhibition percentages.
# For IC50 determinations, the inhibitor is tested at 6 to 10 different concentrations, and the related inhibitions are fitted to a classical langmuir equilibrium model using XLFIT (IDBS).
# T1 sequence (P76658 whole entry): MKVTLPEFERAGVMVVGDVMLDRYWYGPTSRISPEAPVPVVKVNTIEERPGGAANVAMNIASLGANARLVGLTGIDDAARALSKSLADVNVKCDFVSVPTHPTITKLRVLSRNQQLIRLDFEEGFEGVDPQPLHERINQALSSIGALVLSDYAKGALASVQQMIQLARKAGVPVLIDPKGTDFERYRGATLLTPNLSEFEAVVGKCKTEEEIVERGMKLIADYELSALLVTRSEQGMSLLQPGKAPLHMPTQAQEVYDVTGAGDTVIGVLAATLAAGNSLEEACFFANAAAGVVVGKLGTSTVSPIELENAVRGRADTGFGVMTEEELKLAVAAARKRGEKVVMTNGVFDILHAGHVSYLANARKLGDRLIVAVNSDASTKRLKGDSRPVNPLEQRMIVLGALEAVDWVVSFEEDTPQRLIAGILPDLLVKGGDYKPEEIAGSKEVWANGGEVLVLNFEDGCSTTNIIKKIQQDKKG
row,SMILES,IC50 [nM]
1,"COc1ccc2sc(CNc3nncc(-c4cc(-c5cn(CCO)nn5)ccc4Cl)n3)nc2c1 [Example 100, 2-[4-(4-Chloro-3-{3-[(5-methoxy-benzothiazol-2-ylmethyl)-amino]-[1,2,4]triazin-5-yl}-phenyl)-[1,2,3]triazol-1-yl]-ethanol]",255
2,"COc1ccc2sc(CNc3nncc(-c4c(C)cccc4O)n3)nc2c1 [Example 35, 2-(3-{[(5-Methoxy-1,3-benzothiazol-2-yl)methyl]amino}-1,2,4-triazin-5-yl)-3-methylphenol]",69
3,"COc1cccc(OC)c1-c1cnnc(NCc2nc3c(s2)CCCC3)n1 [Example 57, 5-(2,6-Dimethoxyphenyl)-N-(4,5,6,7-tetrahydro-1,3-benzothiazol-2-ylmethyl)-1,2,4-triazin-3-amine]",1900
4,"COc1ccc2sc(CNc3nncc(-c4cc(-c5cn[nH]c5)ccc4Cl)n3)nc2c1 [Example 98, 5-[2-Chloro-5-(1H-pyrazol-4-yl)phenyl]-N-[(5-methoxy-1,3-benzothiazol-2-yl)methyl]-1,2,4-triazin-3-amine]",49
5,"COc1ccc2sc(CNc3nncc(-c4cc(-c5cccnc5)ccc4Cl)n3)nc2c1 [Example 99, 5-(2-Chloro-5-pyridin-3-ylphenyl)-N-[(5-methoxy-1,3-benzothiazol-2-yl)methyl]-1,2,4-triazin-3-amine]",150
6,"Cc1cccc(O)c1-c1cnnc(NCc2nc3cc(NCc4nccs4)ccc3s2)n1 [Example 43, 3-Methyl-2-{3-[({5-[(1,3-thiazol-2-ylmethyl)amino]-1,3-benzothiazol-2-yl}methyl)amino]-1,2,4-triazin-5-yl}phenol]",410
7,"COc1ccc2sc(CNc3nncc(-c4c(Cl)cccc4Cl)n3)nc2c1 [Example 15, 5-(2,6-Dichlorophenyl)-N-[(5-methoxy-1,3-benzothiazol-2-yl)methyl]-1,2,4-triazin-3-amine]",130
8,"NCCSc1ccc2sc(CNc3nncc(-c4c(Cl)cccc4Cl)n3)nc2c1 [Example 94, N-({5-[(2-Aminoethyl)thio]-1,3-benzothiazol-2-yl}methyl)-5-(2,6-dichlorophenyl)-1,2,4-triazin-3-amine]",250
9,"COc1ccc2sc(CNc3nncc(-c4c(C)cc(NC(=O)CN(C)C)cc4C)n3)nc2c1 [Example 75, 2-Dimethylamino-N-(4-{3-[(5-methoxy-benzothiazol-2-ylmethyl)-amino]-[1,2,4]triazin-5-yl}-3,5-dimethyl-phenyl)-acetamide]",190
10,"Oc1ccc2sc(CNc3nncc(-c4c(O)ccc5ccccc45)n3)nc2c1 [Example 33, 2-{[5-(2-Hydroxy-naphthalen-1-yl)-[1,2,4]triazin-3-ylamino]-methyl}-benzothiazol-5-ol]",20
11,"Oc1cccc2sc(CNc3nncc(-c4ccccc4C(F)(F)F)n3)nc12 [Example 64, 2-[({5-[2-(Trifluoromethyl)phenyl]-1,2,4-triazin-3-yl}amino)methyl]-1,3-benzothiazol-4-ol]",5600
12,"COc1ccc2sc(CNc3nncc(-c4cc(-c5ccn[nH]5)ccc4Cl)n3)nc2c1 [Example 97, 5-[2-Chloro-5-(1H-pyrazol-3-yl)phenyl]-N-[(5-methoxy-1,3-benzothiazol-2-yl)methyl]-1,2,4-triazin-3-amine]",53
13,"O=C(O)COc1ccc2sc(CNc3nncc(-c4c(Cl)cccc4Cl)n3)nc2c1 [Example 17, {[2-({[5-(2,6-dichlorophenyl)-1,2,4-triazin-3-yl]amino}methyl)-1,3-benzothiazol-5-yl]oxy}acetic acid]",19
14,"COc1cccc(C)c1-c1cnnc(NCc2nc3cccnc3s2)n1 [Example 70, 5-(2-Methoxy-6-methylphenyl)-N-([1,3]thiazolo[5,4-b]pyridin-2-ylmethyl)-1,2,4-triazin-3-amine]",3100
15,"CC(=O)COc1ccc2sc(CNc3nncc(-c4c(Cl)cccc4Cl)n3)nc2c1 [Example 20, 1-{[2-({[5-(2,6-Dichlorophenyl)-1,2,4-triazin-3-yl]amino}methyl)-1,3-benzothiazol-5-yl]oxy}acetone]",77
16,"NC(=O)COc1ccc2sc(CNc3nncc(-c4c(Cl)cccc4Cl)n3)nc2c1 [Example 21, 2-{[2-({[5-(2,6-Dichlorophenyl)-1,2,4-triazin-3-yl]amino}methyl)-1,3-benzothiazol-5-yl]oxy}acetamide]",67
17,"O=C(COc1ccc2sc(CNc3nncc(-c4c(Cl)cccc4Cl)n3)nc2c1)NCCO [Example 18, 2-(2-{[5-(2,6-Dichloro-phenyl)-[1,2,4]triazin-3-ylamino]-methyl}-benzothiazol-5-yloxy)-N-(2-hydroxy-ethyl)-acetamide]",47
18,"COc1ccc2sc(CNc3nncc(-c4ccc(N5CCNCC5)cc4Cl)n3)nc2c1 [Example 107, N-[(5-Methoxy-1,3-benzothiazol-2-yl)methyl]-5-(2-chloro-4-piperazin-1-ylphenyl)-1,2,4-triazin-3-amine]",670
19,"COc1ccc2sc(CNc3nncc(-c4c(OC)ccc5ccccc45)n3)nc2c1 [Example 29, N-[(5-Methoxy-1,3-benzothiazol-2-yl)methyl]-5(2-methoxy-1-naphthyl)-1,2,4-triazin-3-amine]",51
20,"OCCOc1ccc2sc(CNc3nncc(-c4c(Cl)cccc4Cl)n3)nc2c1 [Example 16, 2-{[2-({[5-(2,6-Dichlorophenyl)-1,2,4-triazin-3-yl]amino}methyl)-1,3-benzothiazol-5-y]oxy}ethanol]",18
21,"COc1ccc2ccccc2c1-c1cnnc(NCc2nc3ccccc3s2)n1 [Example 22, Benzothiazol-2-ylmethyl-[5-(2-methoxy-naphthalen-1-yl)-[1,2,4]triazin-3-yl]-amine]",130
22,"COc1cccc(OC)c1-c1cnnc(N(CC(=O)O)Cc2nc3ccccc3s2)n1 [Example 90, {(1,3-Benzothiazol-2-ylmethyl)[5-(2,6-dimethoxyphenyl)-1,2,4-triazin-3-yl]amino}acetic acid]",2000
23,"Oc1ccc2ccccc2c1-c1cnnc(NCc2nc3ccccc3s2)n1 [Example 32, 1-{3-[(Benzothiazol-2-ylmethyl)-amino]-[1,2,4]triazin-5-yl}-naphthalen-2-ol]",63
24,"CN(C)CCNC(=O)COc1ccc2sc(CNc3nncc(-c4c(Cl)cccc4Cl)n3)nc2c1 [Example 19, 2-(2-{[5-(2,6-Dichloro-phenyl)-[1,2,4]triazin-3-ylamino]-methyl}-benzothiazol-5-yloxy)-N-(2-dimethylamino-ethyl)-acetamide]",165
25,"Cc1nc(CNc2nncc(-c3ccccc3Cl)n2)sc1C [Example 9, 5-(2-Chlorophenyl)-N-[(4,5-dimethyl-1,3-thiazol-2-yl)methyl]-1,2,4-triazin-3-amine]",4300
26,"Cc1cc(NCCN(C)C)cc(C)c1-c1cnnc(NCc2nc3cc(OCCN)ccc3s2)n1 [Example 108, N-[4-(3-{[5-(2-Amino-ethoxy)-benzothiazol-2-ylmethyl]-amino}-[1,2,4]triazin-5-yl)-3,5-dimethyl-phenyl]-N',N'-dimethyl-ethane-1,2-diamine]",1400

# Test system: E. coli K12 AcrAB- TolC-
# Test: Sensitization to complement killing assay (MIC with/without serum)
# Format: cell-based
# Conditions: Escherichia coli, read-out: MIC for E. coli K12 AcrAB- TolC-, FBS=0 (MH2 broth only); 18-22H at 35°C
# Description: The Gram-negative bacteria E. coli K12 AcrAB-/TolC- (K12 strain for which efflux pump components AcrA, AcrB and TolC have been deleted) is grown on Müller Hinton agar (MHA) overnight at 35°C. Five well isolated colonies from overnight agar growth are then added to 10 mL of cation adjusted Müller-Hinton Broth (MH2) and incubated at 35°C with constant shaking for two hours to reach the exponential phase. The suspension is then diluted to obtain an inoculum of 1.5E+04 CFU/mL. Viable counts are obtained by plating 10 to 1000-fold dilutions of the suspension on MHA. A solution of decomplemented Foetal Bovine Serum (dFBS) is prepared by heating normal FBS at 56°C for 30min. Compound dilutions are prepared in DMSO/water 20/80 in polypropylene plates. The following components are added on a polystyrene sterile culture plate in a final volume of 100µL: 5µL of compound in 20% DMSO, 30µL of FBS (30% final) or dFBS (30% final) or MH2 (0% FBS), 65µL of bacterial suspension at 1.5e4 CFU/mL (final inoculum of 1e4 CFU/mL). After 18-22H at 35°C incubation, the MIC of the compound in the presence of FBS 30%, dFBS 30% or FBS 0% is determined by visual inspection of bacterial pellets.
row,SMILES,MIC [µg/mL]
1,"O=C(COc1ccc2sc(CNc3nncc(-c4c(Cl)cccc4Cl)n3)nc2c1)NCCO [Example 18, 2-(2-{[5-(2,6-Dichloro-phenyl)-[1,2,4]triazin-3-ylamino]-methyl}-benzothiazol-5-yloxy)-N-(2-hydroxy-ethyl)-acetamide]",> 32

# Same assay, conditions: Escherichia coli, read-out: MIC for E. coli K12 AcrAB- TolC-, decomplemented FBS=30%; 18-22H at 35°C
row,SMILES,MIC [µg/mL]
1,"O=C(COc1ccc2sc(CNc3nncc(-c4c(Cl)cccc4Cl)n3)nc2c1)NCCO [Example 18, 2-(2-{[5-(2,6-Dichloro-phenyl)-[1,2,4]triazin-3-ylamino]-methyl}-benzothiazol-5-yloxy)-N-(2-hydroxy-ethyl)-acetamide]",> 32

# Same assay, conditions: Escherichia coli, read-out: MIC for E. coli K12 AcrAB- TolC-, normal (complemented) FBS=30%; 18-22H at 35°C
row,SMILES,MIC [µg/mL]
1,"O=C(COc1ccc2sc(CNc3nncc(-c4c(Cl)cccc4Cl)n3)nc2c1)NCCO [Example 18, 2-(2-{[5-(2,6-Dichloro-phenyl)-[1,2,4]triazin-3-ylamino]-methyl}-benzothiazol-5-yloxy)-N-(2-hydroxy-ethyl)-acetamide]",4
